# Reference: patent US20250325711A1, “COVALENT FLUORESCENT PROBES FOR CANNABINOID RECEPTOR 2” (Hoffmann-La Roche Inc., priority 2022, published 2025)
# Biological target: hCB2R (Homo sapiens (Human), UniProt P34972)
# Assay: TR-FRET hCB2R Binding Assay
# Details: SNAP-tagged human CB2R HEK293-TR cell membranes, TR-FRET (HTRF) detection, nonspecific binding with 1 μM SR144528; read-out: Kd hCB2R
smiles,measurement,value
"COc1cc(C(C)(C)CCCCCCN=[N+]=[N-])cc(OC)c1[C@H]1C=C(CNC(=O)CCCCCCOc2c(F)c(F)c3c(c2F)C2(OC3=O)c3ccc(N4CCC4)cc3[Si](C)(C)c3cc(N4CCC4)ccc32)[C@H]2C[C@@H]1C2(C)C [Example 19, N-(((1S,4S,5S)-4-(4-(8-azido-2-methyloctan-2-yl)-2,6-dimethoxyphenyl)-6,6-dimethylbicyclo[3.1.1]hept-2-en-2-yl)methyl)-7-((3,7-di(azetidin-1-yl)-4′,5′,7′-trifluoro-5,5-dimethyl-3′-oxo-3′H,5H-spiro[dibenzo[b,e]siline-10,1′-isobenzofuran]-6′-yl)oxy)heptanamide]",Kd,2 nM
